Data set [1] deals with T1, human dopamine D3 receptors (Homo sapiens, UniProt P35462).
T1 construct: expressed in transfected cells
The data set can be described thus: Dopamine D3 receptor binding assay ([3H]spiperone, CHO cell membranes). As to conditions: for Ki: human D3 receptors in CHO cells, 0.2 nM [3H]spiperone, mean ± SEM, read-out: Affinity Ki (D3); for Selectivity Ki(D2)/Ki(D3): ratio of Ki(D2) to Ki(D3). The method, then: (§1) Compounds synthesized in Examples A, B, C and D were assayed to test their affinity for dopamine D3 and D2 receptors.
(§2) METHODS: Dopamine D2S and D3 Receptor Binding Assays
Human D3 receptors stably expressed in CHO cells were used as described by Sokoloff et al. (Sokoloff, P. et al., Eur. J. Pharmacol. 1992, 225, 331-337). The cell line was cultured in Dulbecco's modified Eagle's medium supplemented with 2 mM glutamine, and 10% dialyzed fetal bovine serum, and were grown in an atmosphere of 5% CO2 at 37° C. (Gibco™).
(§3) Human D2S- and D3 receptors expressing cell lines were grown to confluence. The medium was removed, and the cells were washed with 10 ml PBS buffer (140 mM NaCl, 3 mM KCl, 1.5 mM KH2PO4, 8 mM Na2HPO4, pH 7.4) at 4° C. After removing the wash buffer, the cells were scraped from the flasks into 15 ml of ice-cold media, and centrifuged at 3,000 rpm for 10 minutes at 4° C. After centrifugation the medium was removed and the […] resuspended in ice-cold Tris-HCl buffer containing 5 mM MgCl2, pH 7.4 and disrupted with a Polytron and centrifuged at 20,000 rpm, for 30 minutes at 4° C. The pellet was resuspended by sonication in ice-cold Tris-HCl buffer (containing 5 mM MgCl2, pH 7.4), membrane aliquots were stored at −70° C. Determination of membrane protein was carried out by the method of Bradford (Bradford, M. M. Anal Biochem 1976, 72, 248-54).
(§4) Cell membranes containing human D2S and D3 receptors from CHO cells were thawed, rehomogenized with sonication at 4° C. in Tris-HCl, pH 7.4 containing 120 mM NaCl, 5 mM KCl, 2 mM CaCl2 and 1 mM MgCl2 (incubation buffer), and incubated with 0.2 nM [^3H]spiperone (106 Ci·mmol^−1, Amersham Biosciences, Freiburg, Germany), and drug diluted in incubation buffer. Non-specific binding was determined in the presence of 10 μM BP 897 ((Wermuth, C. G. et al. in Chem. Abstr. (Eur. Pat. 0779284, 1997)). Incubations were run at 25° C. for 120 min, and terminated by rapid filtration through PerkinElmer GF/B glass fibre filters (PerkinElmer Life Sciences, Rodgau, Germany) coated in 0.3% polyethylenimine (Sigma-Aldrich, Taufkirchen, Germany) using an Inotech cell harvester (Inotech AG, Dottikon, Switzerland). Unbound radioligand was removed with four washes of 1 ml of ice-cold 50 mM Tris-HCl buffer, pH 7.4, containing 120 mM NaCl. The filters were soaked in 9 ml Beta plate scint scintillator and counted using a PerkinElmer MicroBeta®Trilux scintillation counter (PerkinElmer Life Sciences). Competition binding data were analyzed by the software GraphPad Prism™ (2000, version 3.02, San Diego, Calif., USA), using non-linear least squares fit. For detailed screening the compounds have been tested at seven concentrations in triplicate carrying out three to five separate binding experiments for human dopamine D2S and for human dopamine D3 receptors and expressed as mean±standard error of the mean (SEM). Ki values were calculated from the IC50 values according to Cheng-Prusoff equation (Cheng, Y. C., Prusoff, W. H. Biochem. Pharmacol. 1973, 22, 3099-3108.).

Data set [2] addresses T2, recombinant human D2(short) dopamine receptor (Homo sapiens, UniProt P14416).
T2 construct: expressed in transfected cells; host or cells: CHO-D2S cells (per Hayes et al. 1992)
As to the kind of experiment: Dopamine D2S receptor binding assay ([3H]spiperone, CHO cell membranes). Conditions: human D2S receptors in CHO cells, 0.2 nM [3H]spiperone, mean ± SEM; read-out: Affinity Ki (D2). The procedure: as §1, §2
CHO-D2S cells, expressing the recombinant human D2(short) dopamine receptor gene, (Hayes, G. et al., J. Mol. Endocrinol. 1992, 6, 920-926) were grown in Dulbecco's modified Eagle's medium/nutrient mixture F12 1:1 mixture supplemented with 2 mM glutamine, 10% fetal bovine serum, and 10 μl·ml^−1 penicillin/streptomycin in an atmosphere of 5% CO2 at 37° C. (Gibco™, Karlsruhe, Germany).
as §3, §4

Counter-ions that a name gives are not always drawn.

T1 sequence (P35462 whole entry): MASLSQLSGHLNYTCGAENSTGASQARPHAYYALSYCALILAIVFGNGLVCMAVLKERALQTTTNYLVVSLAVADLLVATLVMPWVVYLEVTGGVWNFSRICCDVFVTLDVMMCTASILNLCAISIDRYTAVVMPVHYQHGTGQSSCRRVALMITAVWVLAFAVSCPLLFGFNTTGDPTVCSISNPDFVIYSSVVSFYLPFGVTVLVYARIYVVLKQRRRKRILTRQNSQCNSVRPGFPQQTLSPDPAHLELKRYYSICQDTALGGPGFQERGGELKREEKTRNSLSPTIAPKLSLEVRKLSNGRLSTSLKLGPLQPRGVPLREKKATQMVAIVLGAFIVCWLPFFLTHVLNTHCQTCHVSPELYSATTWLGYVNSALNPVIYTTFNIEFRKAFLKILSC
T2 sequence (P14416 1-414 isoform P14416-2): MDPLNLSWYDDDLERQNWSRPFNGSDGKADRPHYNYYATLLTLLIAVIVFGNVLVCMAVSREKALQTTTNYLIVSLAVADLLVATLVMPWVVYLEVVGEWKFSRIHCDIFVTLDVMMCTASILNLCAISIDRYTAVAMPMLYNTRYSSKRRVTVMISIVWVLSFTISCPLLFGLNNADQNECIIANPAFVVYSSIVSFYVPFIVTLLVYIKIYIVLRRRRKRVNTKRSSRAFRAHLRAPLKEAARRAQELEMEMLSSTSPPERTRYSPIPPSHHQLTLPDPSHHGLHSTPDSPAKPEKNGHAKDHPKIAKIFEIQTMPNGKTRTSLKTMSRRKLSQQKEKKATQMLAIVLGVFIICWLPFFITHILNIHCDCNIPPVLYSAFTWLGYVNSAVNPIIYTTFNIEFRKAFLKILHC

For orientation: melting point means the temperature, or range, at which the solid turns liquid. Molecule `CCCN(CCCCNC(=O)C1Cc2ccccc2C1)C1CCc2ncsc2C1` (stereo not drawn) (as salt: salt) [Compound 26, Indane-2-carboxylic acid-{4-[propyl-(4,5,6,7-tetrahydrobenzothiazol-6-yl)amino]butyl}amide] showed a melting point of 119 °C.
Same read-out and setting: under `CCCN(CCCCNC(=O)N1Cc2ccccc2C1)C1CCc2ncsc2C1` (stereo not drawn) (as salt: salt) [Compound 27, 1,3-Dihydro-isoindole-2-carboxylic acid {4-[propyl-(4,5,6,7-tetrahydro-benzothiazol-6-yl)-amino]-butyl}-amide] stands 118 °C.
Turning to `CCN(CCN1CCN(c2ccccc2OC)CC1)C1CCc2ncsc2C1` (stereo not drawn) (as salt: salt) [Compound 28], the melting point turned out to be 108 °C.
Take `CCN(CCCN1CCN(c2ccccc2OC)CC1)C1CCc2ncsc2C1` (stereo not drawn) (as salt: salt) [Compound 29, Ethyl-{3-[4-(2-methoxy-phenyl)-piperazin-1-yl]-propyl}-(4,5,6,7-tetrahydro-benzothiazol-6-yl)-amine]: the melting point was determined as 64 °C.
Still for that read-out and setting: under `CCN(CCCCN1CCN(c2ccccc2OC)CC1)C1CCc2ncsc2C1` (stereo not drawn) (as salt: salt) [Compound 30, Ethyl-{4-[4-(2-methoxy-phenyl)-piperazin-1-yl]-butyl}-(4,5,6,7-tetrahydro-benzothiazol-6-yl)-amine] stands 164 °C; under `CCN(CCN1CCc2ccccc2C1)C1CCc2ncsc2C1` (stereo not drawn) (as salt: salt) [Compound 31, [2-(3,4-Dihydro-1H-isoquinolin-2-yl)-ethyl]-ethyl-(4,5,6,7-tetrahydro-benzothiazol-6-yl)-amine], 193 °C.
Consider `CCN(CCNC(=O)c1ccc2ccccc2c1)C1CCc2ncsc2C1` (stereo not drawn) (as salt: salt) [Compound 32, Naphthalene-2-carboxylic acid {2-[ethyl-(4,5,6,7-tetrahydro-benzothiazol-6-yl)-amino]-ethyl}-amide], for which the melting point was determined as 110 °C.
`CCN(CCN(CC)C1CCc2ncsc2C1)C1CCc2ncsc2C1` (stereo not drawn) (as salt: salt) [Compound 33, N,N′-Diethyl-N,N′-bis-(4,5,6,7-tetrahydro-benzothiazol-6-yl)-ethane-1,2-diamine] showed a melting point of 83 °C.
As to `CCCN(CCCN1CCN(c2cccc(Cl)c2Cl)CC1)C1CCc2ncsc2C1` (stereo not drawn) (as salt: salt) [Compound 36, {3-[4-(2,3-Dichloro-phenyl)-piperazin-1-yl]-propyl}-propyl-(4,5,6,7-tetrahydro-benzothiazol-6-yl)-amine], the melting point came to 110 °C.
On the same count and under the same terms, under `CCCN(CCCCN1CCN(c2cccc(Cl)c2Cl)CC1)C1CCc2ncsc2C1` (stereo not drawn) (as salt: salt) [Compound 37, {4-[4-(2,3-Dichloro-phenyl)-piperazin-1-yl]-butyl}-propyl-(4,5,6,7-tetrahydro-benzothiazol-6-yl)-amine] stands 150 °C.
Regarding `CCCN(CCN1CCN(C(=O)c2ccccc2)CC1)C1CCc2ncsc2C1` (stereo not drawn) (as salt: salt) [Compound 38, [2-(4-Benzoyl-piperazin-1-yl)-ethyl]-propyl-(4,5,6,7-tetrahydro-benzothiazol-6-yl)-amine], the melting point turned out to be 186 °C.
In turn, `CCCN(CCCCNC(=O)NC1Cc2ccccc2C1)C1CCc2ncsc2C1` (stereo not drawn) (as salt: salt) [Compound 60, 1-Indan-2-yl-3-{4-[propyl-(4,5,6,7-tetrahydrobenzothiazol-6-yl)amino]butyl}urea] yielded a melting point of 93 °C.
In turn, `CCCN(CCCCNC(=O)N1CCN(c2ccccc2)CC1)C1CCc2ncsc2C1` (stereo not drawn) (as salt: salt) [Compound 61, 4-Phenylpiperazine-1-carboxylic acid {4-[propyl-(4,5,6,7-tetrahydrobenzothiazol-6-yl)amino]butyl}amide] gave a melting point of 120 °C.
Still for that read-out and setting: under `CCCN(CCCCNC(=O)N1CC=C(c2ccccc2)CC1)C1CCc2ncsc2C1` (stereo not drawn) (as salt: salt) [Compound 62, 4-Phenyl-3,6-dihydro-2H-pyridine-1-carboxylic acid {4-[propyl-(4,5,6,7-tetrahydrobenzothiazol-6-yl)amino]butyl}amide] stands 115 °C.
`CCCN(CCCCNC(=O)N1CCC(c2ccccc2)CC1)C1CCc2ncsc2C1` (stereo not drawn) (as salt: salt) [Compound 64, 4-phenyl-N-(4-(propyl-(4,5,6,7-tetrahydrobenzo [d]thiazol-6-yl)amino)butyl)piperidine-1-carboxamide]: the melting point worked out at 56 °C.
In turn, `CCCN(CCCCNC(=O)C12CC3CC(CC(C3)C1)C2)C1CCc2ncsc2C1` (stereo not drawn) (as salt: salt) [Compound 65] gave a melting point of 114 °C.
Still for that read-out and setting: under `CCCN(CCCCC(=O)N1CCN(c2ccccc2)CC1)C1CCc2ncsc2C1` (stereo not drawn) (as salt: salt) [Compound 66, 1-(4-Phenylpiperazin-1-yl)-5-(propyl-(4,5,6,7-tetrahydrobenzothiazol-6-yl)amino)pentan-1-one] stands 75 °C.
For the molecule `CCCN(CCCCC(=O)NC1Cc2ccccc2C1)C1CCc2ncsc2C1` (stereo not drawn) (as salt: salt) [Compound 67, N-(2,3-dihydro-1H-inden-2-yl)-5-(propyl-(4,5,6,7-tetrahydrobenzothiazol-6-yl)amino)pentanamide], the melting point was determined as 60 °C.
Molecule `CCCN(CCCCC(=O)NC12CC3CC(CC(C3)C1)C2)C1CCc2ncsc2C1` (stereo not drawn) (as salt: salt) [Compound 68, N-Adamantanyl-5-(propyl-(4,5,6,7-tetrahydrobenzothiazol-6-yl)amino)pentanamide] had a melting point of 145 °C.
The molecule `CCCN(CCOc1ccccc1)C1CCc2ncsc2C1` (stereo not drawn) (as salt: salt) [Compound 69, N-(2-Phenoxyethyl)-N-propyl-4,5,6,7-tetrahydrobenzothiazol-6-amine] displayed a melting point of 136 °C.
Usually Ki stands for a measure of affinity in units of concentration, obtained from inhibition or displacement. Molecule `CCCN(CCN1CCN(c2cccc(Cl)c2Cl)CC1)C1CCc2ncsc2C1` (stereo not drawn) [Compound 35, {2-[4-(2,3 -Dichloro-phenyl)-piperazin-1-yl]-ethyl}-propyl-(4,5,6,7-tetrahydro-benzothiazol-6-yl)-amine] came in with a melting point of 103.5 °C. In data set [1], the inhibitory constant (Ki) is 21.7 ± 10.6 nM and the “Selectivity Ki(D2)/Ki(D3)” value was determined as 2. For the same molecule, in data set [2], the inhibition constant Ki was determined as 61.3 ± 19.1 nM.
Regarding `CCCN(Cc1ccc(C(=O)N(CCC)C2CCc3ncsc3C2)cc1)C1CCc2ncsc2C1` (stereo not drawn) [Compound 42, N-Propyl-4-{[propyl-(4,5,6,7-tetrahydrobenzothiazol-6-yl)amino]methyl}-N-(4,5,6,7-tetrahydrobenzothiazol-6-yl)benzamide], the melting point was 85 °C. Moreover, in data set [1], the inhibitory constant (Ki) turned out to be 631 ± 388 nM and the “Selectivity Ki(D2)/Ki(D3)” value is 26. The Ki in data set [2] stood at 16700 ± 3380 nM.
For `CCCN(Cc1ccc(C(=O)N2CCN(c3ccccc3)CC2)cc1)C1CCc2ncsc2C1` (stereo not drawn) [Compound 43, (4-Phenylpiperazin-1-yl)-(4-{[propyl-(4,5,6,7-tetrahydrobenzothiazol-6-yl)amino]methyl}phenyl)methanone], the melting point amounted to 70 °C. For the same molecule, in data set [1], the Ki amounted to 29.4 ± 7.5 nM and the “Selectivity Ki(D2)/Ki(D3)” value stood at 49. Besides, the Ki in data set [2] was determined as 1440 ± 273 nM.
The molecule `CCCN(Cc1ccc(C(=O)NC2Cc3ccccc3C2)cc1)C1CCc2ncsc2C1` (stereo not drawn) [Compound 44, N-Indan-2-yl-4-{[propyl-(4,5,6,7-tetrahydrobenzothiazol-6-yl)amino]methyl}benzamide] registered a melting point of 65 °C. In data set [1], the Ki was determined as 836 ± 211 nM and the “Selectivity Ki(D2)/Ki(D3)” value was 19. For the same molecule, the Ki in data set [2] amounted to 16100 ± 8850 nM.

Source of the values: patent US8389555B2, “Medicaments” (Motac Neuroscience Limited, priority 2007, dated 2013).
